Values quoted from earlier work in patent US20200404921A1, “SOIL TREATMENT WITH METAM SALTS AND ONE OR MORE OF CALCIUM THIOSULFATE, CALCIUM CHLORIDE AND CALCIUM NITRATE” (Tessenderlo Kerley, Inc., priority 2018, published 2020).

Experiments:
[1] = more soluble than gypsum
soilborne disease = settings: about 40 gallons of metam sodium per acre (190 Kg of active ingredient/ha), commercial conditions

O=S([O-])([O-])=S.[Ca+2] [calcium thiosulfate]
solubility relative to gypsum [1]: 125 times

CNC(=S)S [metam sodium, sodium methyldithiocarbamate]
reduction of certain soilborne disease (soilborne disease): ~70%
